The target of one test is T1, Acetylcholinesterase (Bos taurus, UniProt P23795).
T1 sequence (P23795 whole entry): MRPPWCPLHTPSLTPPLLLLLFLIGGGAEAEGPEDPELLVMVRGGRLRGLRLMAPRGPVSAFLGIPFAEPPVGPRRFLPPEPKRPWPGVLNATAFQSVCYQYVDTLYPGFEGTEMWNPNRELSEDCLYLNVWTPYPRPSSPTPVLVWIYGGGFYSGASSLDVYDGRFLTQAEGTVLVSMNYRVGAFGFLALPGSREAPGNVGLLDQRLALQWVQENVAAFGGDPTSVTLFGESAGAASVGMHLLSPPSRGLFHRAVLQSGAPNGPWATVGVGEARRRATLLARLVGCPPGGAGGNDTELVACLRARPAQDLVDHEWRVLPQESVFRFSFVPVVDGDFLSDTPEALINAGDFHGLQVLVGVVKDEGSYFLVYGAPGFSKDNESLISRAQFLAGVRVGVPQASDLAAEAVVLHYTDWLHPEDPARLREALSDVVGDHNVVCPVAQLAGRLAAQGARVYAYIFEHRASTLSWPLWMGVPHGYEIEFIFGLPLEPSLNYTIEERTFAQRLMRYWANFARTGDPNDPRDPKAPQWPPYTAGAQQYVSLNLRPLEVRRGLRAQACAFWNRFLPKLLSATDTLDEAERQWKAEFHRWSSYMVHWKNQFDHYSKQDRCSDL
Nature of the test: Inhibition of bovine AChE using ACH iodide as substrate preincubated for 60 mins followed by substrate addition and measured after 1 hrs by spectrophotometeric analysis.

For another test, the species on record is Rattus norvegicus. Nature of the test: Analgesic activity in rat assessed as inhibition of acetic acid-induced writhing. In kind it is functional.
Test [1] addresses T2, RNA-directed RNA polymerase (Hepacivirus hominis, UniProt O39930). Nature of the test: Inhibition of HCV genotype 1b NS5B RNA dependent RNA polymerase expressed in Escherichia coli BL21 (DE3) using biotinylated oligo-dT12 primer as substrate after 60 mins. More on the design: species or system Hepatitis C virus subtype 1b.
Test [2] has as its target Methionine aminopeptidase 2 (Homo sapiens, UniProt P50579). Nature of the test: Inhibition of human recombinant MetAP2 expressed in Sf9 insect cells using MAS as substrate after 30 mins by fluorometeric analysis.
The test system of another test is Staphylococcus aureus. Nature of the test: Antimicrobial activity against Staphylococcus aureus. Format: functional.
A further test relates to Escherichia coli. Nature of the test: Antimicrobial activity against Escherichia coli. Format: functional.
The subject of another test is Staphylococcus. Nature of the test: Antimicrobial activity against Staphylococcus. In kind it is functional.
Test [3] is described as follows: Inhibition of [33P]-ATP binding to Escherichia coli NR2 after 15 mins by liquid scintillation analysis.
In test [4] the target is T2, RNA-directed RNA polymerase. Nature of the test: Inhibition of HCV NS5B RNA dependent RNA polymerase.
For another test, the system named is Hepatitis C virus. Nature of the test: Antiviral activity against HCV replicon after 3 days by RT-PCR analysis. Format: functional, organism-based, Hepacivirus hominis. The settings on record: 72 h.
The target of test [5] is Sodium channel protein type 9 subunit alpha (Rattus norvegicus, UniProt O08562). Nature of the test: Inhibition of Nav1.7 in rat dorsal root ganglions at -60 mV holding potential by patch clamp assay.

We go through nine compounds from ChEMBL document CHEMBL4229386, “Benzopyrroloxazines containing a bridgehead nitrogen atom as promising scaffolds for the achievement of biologically active agents” (Eur J Med Chem, 2018).

The structures appear in SMILES notation. In brackets after ≈: the same amount, converted by molar mass.

T2 sequence (O39930 whole entry): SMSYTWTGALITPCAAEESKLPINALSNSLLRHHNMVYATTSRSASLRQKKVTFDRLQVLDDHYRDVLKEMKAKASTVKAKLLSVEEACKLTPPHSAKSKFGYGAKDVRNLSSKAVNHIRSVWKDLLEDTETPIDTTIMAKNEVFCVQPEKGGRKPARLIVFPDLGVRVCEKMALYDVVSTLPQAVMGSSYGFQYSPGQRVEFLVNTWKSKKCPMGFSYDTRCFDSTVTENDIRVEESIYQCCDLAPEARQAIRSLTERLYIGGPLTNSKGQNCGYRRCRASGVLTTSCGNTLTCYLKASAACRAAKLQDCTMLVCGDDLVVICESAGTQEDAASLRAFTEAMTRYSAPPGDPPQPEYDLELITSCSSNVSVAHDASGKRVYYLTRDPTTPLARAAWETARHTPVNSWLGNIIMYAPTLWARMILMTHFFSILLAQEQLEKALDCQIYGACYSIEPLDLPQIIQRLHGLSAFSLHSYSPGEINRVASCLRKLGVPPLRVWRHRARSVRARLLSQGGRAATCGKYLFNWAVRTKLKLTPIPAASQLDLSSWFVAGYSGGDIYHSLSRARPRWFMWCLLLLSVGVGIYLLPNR
Methionine aminopeptidase 2, sequence (P50579 whole entry): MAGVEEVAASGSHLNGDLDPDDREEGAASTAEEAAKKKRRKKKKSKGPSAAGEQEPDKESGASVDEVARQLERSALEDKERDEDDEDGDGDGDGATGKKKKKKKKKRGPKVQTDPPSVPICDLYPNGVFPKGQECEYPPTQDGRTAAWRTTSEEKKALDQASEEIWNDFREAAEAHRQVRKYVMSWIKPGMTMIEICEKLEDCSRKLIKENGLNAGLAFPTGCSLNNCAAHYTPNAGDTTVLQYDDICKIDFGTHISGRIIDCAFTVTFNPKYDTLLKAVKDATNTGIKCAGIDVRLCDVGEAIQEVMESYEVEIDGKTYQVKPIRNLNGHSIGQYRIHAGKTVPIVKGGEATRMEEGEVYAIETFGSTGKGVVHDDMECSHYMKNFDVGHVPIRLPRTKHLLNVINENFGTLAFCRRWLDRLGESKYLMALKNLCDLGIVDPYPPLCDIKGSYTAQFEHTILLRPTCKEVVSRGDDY
Sodium channel protein type 9 subunit alpha, sequence (O08562 whole entry): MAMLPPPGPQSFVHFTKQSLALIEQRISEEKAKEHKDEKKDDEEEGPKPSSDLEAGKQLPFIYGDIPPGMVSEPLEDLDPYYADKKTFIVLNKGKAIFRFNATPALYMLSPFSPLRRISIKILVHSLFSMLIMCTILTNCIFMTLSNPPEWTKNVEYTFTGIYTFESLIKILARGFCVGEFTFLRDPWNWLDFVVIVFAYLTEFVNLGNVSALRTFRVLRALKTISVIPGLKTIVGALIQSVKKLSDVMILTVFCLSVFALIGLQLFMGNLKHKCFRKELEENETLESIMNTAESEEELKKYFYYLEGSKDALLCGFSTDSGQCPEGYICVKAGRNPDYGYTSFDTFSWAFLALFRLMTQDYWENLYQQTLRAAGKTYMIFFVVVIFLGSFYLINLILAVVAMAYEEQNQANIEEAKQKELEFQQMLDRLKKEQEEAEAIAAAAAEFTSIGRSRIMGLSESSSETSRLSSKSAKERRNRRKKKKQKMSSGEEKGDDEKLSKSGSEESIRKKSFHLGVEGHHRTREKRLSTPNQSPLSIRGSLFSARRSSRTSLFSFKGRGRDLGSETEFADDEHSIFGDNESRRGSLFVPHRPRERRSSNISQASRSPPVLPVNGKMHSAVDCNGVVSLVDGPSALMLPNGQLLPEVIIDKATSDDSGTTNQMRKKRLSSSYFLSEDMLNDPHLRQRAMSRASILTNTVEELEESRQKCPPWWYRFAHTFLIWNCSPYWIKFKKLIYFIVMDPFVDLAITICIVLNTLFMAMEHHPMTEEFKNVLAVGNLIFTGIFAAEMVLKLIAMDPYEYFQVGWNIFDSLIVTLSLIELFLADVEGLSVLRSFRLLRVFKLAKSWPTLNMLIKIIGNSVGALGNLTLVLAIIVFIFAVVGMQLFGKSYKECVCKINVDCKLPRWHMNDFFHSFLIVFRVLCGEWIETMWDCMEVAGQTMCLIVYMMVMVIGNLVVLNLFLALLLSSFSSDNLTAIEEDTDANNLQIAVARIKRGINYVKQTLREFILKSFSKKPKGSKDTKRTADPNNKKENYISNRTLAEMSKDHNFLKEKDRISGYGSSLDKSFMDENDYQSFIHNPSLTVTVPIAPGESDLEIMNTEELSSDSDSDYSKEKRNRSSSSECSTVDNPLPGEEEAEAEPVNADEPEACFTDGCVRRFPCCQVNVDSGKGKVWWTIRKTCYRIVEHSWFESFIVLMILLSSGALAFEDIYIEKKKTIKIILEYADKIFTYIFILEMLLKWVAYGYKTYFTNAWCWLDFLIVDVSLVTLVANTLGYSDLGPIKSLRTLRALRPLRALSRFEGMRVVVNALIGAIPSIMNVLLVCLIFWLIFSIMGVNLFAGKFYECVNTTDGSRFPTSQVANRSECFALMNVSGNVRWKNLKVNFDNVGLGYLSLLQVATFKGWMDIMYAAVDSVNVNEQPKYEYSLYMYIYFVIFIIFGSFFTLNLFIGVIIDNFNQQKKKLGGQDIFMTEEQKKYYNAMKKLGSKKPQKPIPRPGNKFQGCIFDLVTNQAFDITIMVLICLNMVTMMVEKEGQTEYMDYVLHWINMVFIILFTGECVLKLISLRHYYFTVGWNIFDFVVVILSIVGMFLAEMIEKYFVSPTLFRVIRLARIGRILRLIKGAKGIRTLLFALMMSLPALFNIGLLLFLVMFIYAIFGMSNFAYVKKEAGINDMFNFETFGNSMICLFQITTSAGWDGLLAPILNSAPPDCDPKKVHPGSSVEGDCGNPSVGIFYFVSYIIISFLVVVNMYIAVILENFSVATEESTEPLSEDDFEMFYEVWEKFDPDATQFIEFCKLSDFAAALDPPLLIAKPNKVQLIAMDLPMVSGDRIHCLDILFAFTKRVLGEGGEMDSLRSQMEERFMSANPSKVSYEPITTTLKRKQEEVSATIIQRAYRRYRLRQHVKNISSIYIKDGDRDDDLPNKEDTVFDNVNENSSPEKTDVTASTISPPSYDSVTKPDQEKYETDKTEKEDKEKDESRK

On Acetylcholinesterase, `CC(=O)OC12C=CC(=O)N1c1ccccc1C(=O)O2` (stereo unspecified) had a Ki of 4700 nM.

As to `Cc1c(C(=O)c2ccc3ncccc3c2)c2cccc3c2n1C(CN1CCOCC1)CO3` (stereo unspecified), in the test listed under Rattus norvegicus, the 50% effective dose (ED50) is 3.5 mg/kg.

`CN(C)S(=O)(=O)NC(=O)c1ccc2c(C3CCCCC3)c(-c3ccccc3)n3c2c1OCC3` registered a half-inhibitory concentration (IC50) in test [1] of under 10000 nM.

For `CCN(CC)C/C=C\c1cc(F)ccc1S(=O)(=O)Nc1ccc2c(c1C(=O)O)OCc1cccn1-2`, in test [2], the IC50 is under 50 nM.

Take `CCCc1c(O)cc2oc3cccn3c(=O)c2c1O`: the minimum inhibitory concentration (MIC) against Staphylococcus aureus and in the test on Escherichia coli was 2 µg/mL (≈ 7.71 µM) each time.

On to `CCCc1c(O)cc2oc3cc(Cl)cn3c(=O)c2c1O`, for which the MIC in the test on Staphylococcus lay in the range of 0.2 to 0.78 µg/mL (≈ 0.681 to 2.66 µM). This compound displayed an IC50 in [3] of 20000 nM.

In the case of `COC(=O)NC(C(=O)N1CCCC1c1ncc(-c2ccc3c(c2)OCn2c-3c(F)c3cc(-c4cnc(C5CCCN5C(=O)C(NC(=O)OC)C(C)C)[nH]4)ccc32)[nH]1)C(C)C` (stereo unspecified), the IC50 in test [4] is 0.001 nM.

With `COC(=O)NC(C(=O)N1CCCC1c1ncc(-c2ccc3c(c2)-n2ccc4cc(-c5cnc(C6CCCN6C(=O)C(NC(=O)OC)C(C)C)[nH]5)cc(c42)O3)[nH]1)C(C)C` (stereo unspecified), a half-maximal effect with Hepatitis C virus (EC50) was put at 0.01 nM.

Compound `COc1c(O)cccc1C(=O)N1CCC2(CC1)Oc1ccccc1-n1c(C#N)ccc12` displayed an IC50 in test [5] of under 2000 nM.
